# Data from patent publication US20250228761A1, “COMPOSITION COMPRISING A SURFACE-REACTED CALCIUM CARBONATE AND A TANNIN” (Omya International AG, priority 2021, published 2025).
# Test: In vitro measurement of antiperspirant effect (SOD4 device, Smart-Pore microchannels)
# Details: 80% hygrometry, 2 mg/cm^2 dose
# Experimental: In vitro measurement of antiperspirant activity was measured with an SOD4 device from Microfactory, France. The SOD4 device is an automated biomimetic system that imitates the sweating process. The device comprises (1) Smart-Pore™: a silicone microfluidic chip containing microchannels which mimic skin pores (number of pores per chip: 4; dimensions of the pores: 60 μm×60 μm×2 mm; material: polydimethylsiloxane); (2) a pressure system controlling the flow of sweat in the pores down to nanoliter volumes; (3) a climate chamber regulated in humidity/temperature to reproduce perspiration conditions; (4) an optical system to monitor and record the interaction between the antiperspirant and artificial sweat.
# Known antiperspirants block sweat pores thereby reducing sweating of a subject. The blocking is caused by a precipitate or clot in the sweat pore which is formed by interaction of the antiperspirant with components of sweat. The SOD4 device mimics this process and allows for analyzing the interaction of an antiperspirant sample and artificial sweat in the microfluidic channel. The analysis includes, e.g. detection of precipitate/clot formation, measuring precipitate/clot formation time, and measuring pressure (bursting pressure) which is necessary for removing the precipitate/clot from the microchannel. […]
substance,measurement,setting,value
Aluminium chlorohydrate [Sample 4],Burst pressure (mbar)*,"average of the maximal pressure applied before unclogging of precipitate/clot from the microchannel, after one hour interaction with artificial sweat at 25° C.",699 +/− 34 mbar
same,Clot formation time,"average over all observed clots, artificial sweat, 25° C.",2047 s
